Source: ChEMBL document CHEMBL1149028, “Isolation and structure of cephalostatins 10 and 11” (1994)
Values after ≈ are worked out from the molar mass of the structure shown.

Experiments:
Format in all cases: functional
P388 = test: Growth inhibition of mouse P388 cells; settings: read-out: ED50 (the source's name)
COLO 205 = test: Growth inhibition of human COLO205 cells
DLD-1 = test: Growth inhibition of human DLD1 cells
HCC 2998 = test: Growth inhibition of human HCC2998 cells
HCT-116 = test: Growth inhibition of human HCT116 cells
HCT-15 = test: Growth inhibition of human HCT15 cells
HT-29 = test: Growth inhibition of human HT-29 cells
KM-20L2 = test: Growth inhibition of human KM20L2 cells
SW-620 = test: Growth inhibition of human SW620 cells
SF-268 = test: Growth inhibition of human SF268 cells
SF-295 = test: Growth inhibition of human SF295 cells
SF-539 = test: Growth inhibition of human SF539 cells
SNB-19 = test: Growth inhibition of human SNB19 cells
SNB-75 = test: Growth inhibition of human SNB75 cells
SNB-78 = test: Growth inhibition of human SNB78 cells
U-251 = test: Growth inhibition of human U251 cells
XF498 = test: Growth inhibition of human XF498 cells
LOX IMVI = test: Growth inhibition of human LOXIMVI cells
Malme-3M = test: Growth inhibition of human MALME-3M cells
M14 = test: Growth inhibition of human M14 cells
M19-MEL = test: Growth inhibition of human M19-MEL cells
SK-MEL-2 = test: Growth inhibition of human SK-MEL-2 cells
SK-MEL-28 = test: Growth inhibition of human SK-MEL-28 cells
SK-MEL-5 = test: Growth inhibition of human SK-MEL-5 cells
UACC-257 = test: Growth inhibition of human UACC257 cells
UACC-62 = test: Growth inhibition of human UACC62 cells
IGROV-1 = test: Growth inhibition of human IGROV1 cells
OVCAR-3 = test: Growth inhibition of human OVCAR-3 cells
OVCAR-4 = test: Growth inhibition of human OVCAR4 cells
OVCAR-5 = test: Growth inhibition of human OVCAR5 cells
OVCAR-8 = test: Growth inhibition of human OVCAR8 cells; settings: OVCAR-8, read-out: pGI50 (converted)
SK-OV-3 = test: Growth inhibition of human SKOV3 cells
[1] = Growth inhibition of human 786-O cells; settings: 786-0
A498 = test: Growth inhibition of human A498 cells
ACHN = test: Growth inhibition of human ACHN cells
CAKI-1 = test: Growth inhibition of human Caki1 cells
RXF 393 = test: Growth inhibition of human RXF393 cells
SN12C = test: Growth inhibition of human SN12C cells
TK-10 = test: Growth inhibition of human TK10 cells
UO-31 = test: Growth inhibition of human UO31 cells
DMS-273 = test: Growth inhibition of human DMS273 cells
KM12 = test: Growth inhibition of human KM12 cells
CCRF-CEM = test: Growth inhibition of human CCRF-CEM cells
HL-60(TB) = test: Growth inhibition of human HL-60(TB) cells
K562 = test: Growth inhibition of human K562 cells
MOLT-4 = test: Growth inhibition of human MOLT4 cells
RPMI-8226 = test: Growth inhibition of human RPMI8226 cells
SR = test: Growth inhibition of human SR cells
A549 = test: Growth inhibition of human A549 cells
EKVX = test: Growth inhibition of human EKVX cells
HOP-18 = test: Growth inhibition of human HOP18 cells
HOP-62 = test: Growth inhibition of human HOP62 cells
HOP-92 = test: Growth inhibition of human HOP92 cells
NCI-H226 = test: Growth inhibition of human NCI-H226 cells
NCI-H23 = test: Growth inhibition of human NCI-H23 cells
NCI-H322M = test: Growth inhibition of human NCI-H322M cells
NCI-H460 = test: Growth inhibition of human NCI-H460 cells
NCI-H522 = test: Growth inhibition of human NCI-H522 cells
[2] = Growth inhibition of human LXFL529 cells; settings: LXFL 529
DMS-114 = test: Growth inhibition of human DMS114 cells

SMILES: CO[C@H]1c2nc3c(nc2C[C@@H]2CC[C@H]4C5=CC[C@@H]6[C@@H](C)[C@]7(OC[C@]56C(=O)C[C@]4(O)[C@]21C)OC(C)(C)C[C@H]7O)C[C@@]1(C)[C@@H](CC[C@H]2C4=C[C@@H]5O[C@]6(O[C@](C)(CO)C[C@H]6O)[C@@H](C)[C@]5(O)[C@@]4(C)[C@H](O)C[C@@H]21)C3
- EC50 (P388): 2.5 ng/mL (≈ 2.61 nM)

SMILES: C[C@@H]1[C@]2(O[C@H]3C=C4[C@@H]5CC[C@H]6Cc7nc8c(nc7C[C@]6(C)[C@H]5C[C@@H](O)[C@]4(C)[C@]31O)C[C@@H]1CC[C@H]3C4=CC[C@@H]5[C@H](C)[C@@]6(OC[C@]45C(=O)C[C@@H]3[C@@]1(C)C8)OC(C)(C)C[C@H]6O)O[C@](C)(CO)C[C@H]2O [CEPHALOSTATIN 1]
- GI50 (COLO 205): 1.7 nM
- GI50 (DLD-1): 8.51 nM
- GI50 (HCC 2998): 60.3 nM
- GI50 (HCT-116): 0.525 nM
- GI50 (HCT-15): 3.39 nM
- GI50 (HT-29): 2 nM
- GI50 (KM-20L2): 2 nM
- GI50 (SW-620): 0.302 nM
- GI50 (SF-268): 2.19 nM
- GI50 (SF-295): 0.0437 nM
- GI50 (SF-539): 0.0813 nM
- GI50 (SNB-19): 1.7 nM
- GI50 (SNB-75): 0.0813 nM
- GI50 (SNB-78): 0.794 nM
- GI50 (U-251): 0.0646 nM
- GI50 (XF498): 0.589 nM
- GI50 (LOX IMVI): 0.24 nM
- GI50 (Malme-3M): 5.25 nM
- GI50 (M14): 0.49 nM
- GI50 (M19-MEL): 47.9 nM
- GI50 (SK-MEL-2): 0.741 nM
- GI50 (SK-MEL-28): 0.955 nM
- GI50 (SK-MEL-5): 3.47 nM
- GI50 (UACC-257): 3.71 nM
- GI50 (UACC-62): 0.389 nM
- GI50 (IGROV-1): 2.19 nM
- GI50 (OVCAR-3): 30.9 nM
- GI50 (OVCAR-4): 14.1 nM
- GI50 (OVCAR-5): 10 nM
- GI50 (OVCAR-8): 24 nM
- GI50 (SK-OV-3): 7.08 nM
- GI50 [1]: 0.0776 nM
- GI50 (A498): 0.537 nM
- GI50 (ACHN): 3.31 nM
- GI50 (CAKI-1): 0.724 nM
- GI50 (RXF 393): 0.0251 nM
- GI50 (SN12C): 21.9 nM
- GI50 (TK-10): 93.3 nM
- GI50 (UO-31): 4.17 nM
- GI50 (DMS-273): 0.0525 nM
- GI50 (KM12): 3.24 nM
- GI50 (CCRF-CEM): 0.251 nM
- GI50 (HL-60(TB)): 0.151 nM
- GI50 (K562): 0.427 nM
- GI50 (MOLT-4): 0.2 nM
- GI50 (RPMI-8226): 0.0513 nM
- GI50 (SR): 0.288 nM
- GI50 (A549): 1.1 nM
- GI50 (EKVX): 43.6 nM
- GI50 (HOP-18): 0.832 nM
- GI50 (HOP-62): 0.209 nM
- GI50 (HOP-92): 0.724 nM
- GI50 (NCI-H226): 3.24 nM
- GI50 (NCI-H23): 0.339 nM
- GI50 (NCI-H322M): 33.1 nM
- GI50 (NCI-H460): 0.309 nM
- GI50 (NCI-H522): 2.4 nM
- GI50 [2]: 0.363 nM
- GI50 (DMS-114): 0.661 nM

SMILES: CO[C@H]1c2nc3c(nc2C[C@@H]2CC[C@H]4C5=C[C@@H]6O[C@]7(O[C@](C)(CO)C[C@H]7O)[C@@H](C)[C@]6(O)[C@@]5(C)[C@H](O)C[C@@H]4[C@]21C)C[C@@]1(C)[C@@H](CC[C@H]2C4=CC[C@@H]5[C@H](C)[C@@]6(OC[C@]45C(=O)C[C@@]21O)OC(C)(C)C[C@H]6O)C3 [CEPHALOSTATIN 10]
- EC50 (P388): 3 ng/mL (≈ 3.13 nM)
